The results in this text go back to patent US20210395239A1 (Hoffmann-La Roche Inc., priority 2018, published 2021).

This test has as its target T1, human TLR8 (Homo sapiens, UniProt Q9NR97).
T1 construct: host or cells: HEK293 (HEK-Blue hTLR8)
T1 sequence (Q9NR97 27-1041): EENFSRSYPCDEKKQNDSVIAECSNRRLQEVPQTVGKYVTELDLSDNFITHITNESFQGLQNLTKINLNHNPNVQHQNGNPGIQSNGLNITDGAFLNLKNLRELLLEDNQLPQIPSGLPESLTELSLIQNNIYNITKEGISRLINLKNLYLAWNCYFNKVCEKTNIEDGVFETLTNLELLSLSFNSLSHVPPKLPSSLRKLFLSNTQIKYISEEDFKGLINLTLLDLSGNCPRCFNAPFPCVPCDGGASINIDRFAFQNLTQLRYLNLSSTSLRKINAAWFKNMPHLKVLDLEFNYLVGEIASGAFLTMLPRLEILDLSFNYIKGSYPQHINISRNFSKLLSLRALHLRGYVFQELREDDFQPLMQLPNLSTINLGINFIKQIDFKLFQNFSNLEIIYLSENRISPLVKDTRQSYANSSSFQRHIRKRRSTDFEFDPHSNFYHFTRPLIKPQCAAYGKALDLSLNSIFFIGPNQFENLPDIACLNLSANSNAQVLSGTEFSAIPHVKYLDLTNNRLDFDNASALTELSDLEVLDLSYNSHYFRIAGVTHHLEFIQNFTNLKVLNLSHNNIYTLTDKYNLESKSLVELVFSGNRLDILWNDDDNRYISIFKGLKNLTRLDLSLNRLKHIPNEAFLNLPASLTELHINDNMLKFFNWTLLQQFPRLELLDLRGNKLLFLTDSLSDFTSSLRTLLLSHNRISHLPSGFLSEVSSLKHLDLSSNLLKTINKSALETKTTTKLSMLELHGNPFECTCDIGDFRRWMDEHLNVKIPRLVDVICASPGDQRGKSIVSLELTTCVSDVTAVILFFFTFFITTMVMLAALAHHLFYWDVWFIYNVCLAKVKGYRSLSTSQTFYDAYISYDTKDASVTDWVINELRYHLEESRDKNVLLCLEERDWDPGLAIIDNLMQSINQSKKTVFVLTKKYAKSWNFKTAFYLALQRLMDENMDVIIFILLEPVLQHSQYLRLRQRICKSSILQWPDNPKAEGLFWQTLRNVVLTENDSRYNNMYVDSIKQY
The test is described as follows: HEK293-Blue-hTLR-8 cells assay (SEAP reporter, R848 stimulation). The class given is cell-based. Conditions: HEK293-Blue-hTLR8 cells, R848, 20 hrs; read-out: HEK/hTLR8 IC50. The method, boiled down:
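Antagonism read as reduced R848-induced SEAP reporter secretion, detected by QUANTI-Blue absorbance at 620–655 nm after 2 h. Reporter cells were exposed to compound dilutions in DMEM/10% FBS, 1% DMSO, for 20 h at 37° C.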
In the case of `C[C@@H]1CN(c2ccc(C#N)c3ncccc23)C[C@H](CN2CCN(c3ccnc(N4C[C@H]5NCCO[C@@H]5C4)n3)CC2)O1` [Example 103, 5-[(2S,6R)-2-[[4-[2-[(4aR,7aR)-3,4,4a,5,7,7a-hexahydro-2H-pyrrolo[3,4-b][1,4]oxazin-6-yl]pyrimidin-4-yl]piperazin-1-yl]methyl]-6-methyl-morpholin-4-yl]quinoline-8-carbonitrile], the IC50 stood at 1 nM.

Take `[2H]c1ccc2c(N3C[C@H](CN4CCN(c5ccc(N6CC(C)(N)C6)c(C)n5)CC4)O[C@H](C)C3)ccc(C#N)c2n1` [Example 147, 5-[(2S,6R)-2-[[4-[5-(3-amino-3-methyl-azetidin-1-yl)-6-methyl-2-pyridyl]piperazin-1-yl]methyl]-6-methyl-morpholin-4-yl]-2-deuterio-quinoline-8-carbonitrile]: the IC50 was 11 nM.

`C[C@@H]1CN(c2ccc(C#N)c3ncccc23)C[C@H](CN2CCC(c3cccc(N4CCNCC4)c3)C2)O1` (stereo partly drawn) [Example 1, 5-[(2R,6S)-2-methyl-6-[[3-(3-piperazin-1-ylphenyl)pyrrolidin-1-yl]methyl]morpholin-4-yl]quinoline-8-carbonitrile]: the IC50 worked out at 40 nM.

For the compound `C[C@@H]1CN(c2ccc(C#N)c3nccnc23)C[C@H](CN2CCN(c3ccnc(N4C[C@H](N)[C@@H](F)C4)n3)CC2)O1` [Example 107, 8-[(2S,6R)-2-[[4-[2-[(3S,4S)-3-amino-4-fluoro-pyrrolidin-1-yl]pyrimidin-4-yl]piperazin-1-yl]methyl]-6-methyl-morpholin-4-yl]quinoxaline-5-carbonitrile], the IC50 was 1 nM.

Turning to `COC1CN(c2nccc(N3CCN(C[C@H]4CN(c5ccc(C#N)c6ncccc56)C[C@@H](C)O4)CC3)n2)CC1N` (stereo in doubt) [Example 93, 5-[(2S,6R)-2-[[4-[2-[(3R,4S)-3-amino-4-methoxy-pyrrolidin-1-yl]pyrimidin-4-yl]piperazin-1-yl]methyl]-6-methyl-morpholin-4-yl]quinoline-8-carbonitrile], the IC50 turned out to be 3 nM.

With `Cc1ccc(N2C[C@H](CN3CCN(c4ccnc(N5CC6(CNCCO6)C5)n4)CC3)O[C@H](C)C2)c2nccnc12` [Example 126, 2-[4-[4-[[(2S,6R)-6-methyl-4-(8-methylquinoxalin-5-yl)morpholin-2-yl]methyl]piperazin-1-yl]pyrimidin-2-yl]-5-oxa-2,8-diazaspiro[3.5]nonane], the IC50 came out at 6 nM.
